Assays:
homozygous cpk mice = test: Survival of cpk mice on weekly intraperitoneal treatment (Example 8, FIG. 2); assay type: in vivo, mouse
Description: Untreated and methotrexate (MTX) treated polycystic cpk mice all died before 30 days of age. Most polycystic cpk mice treated with weekly taxol survive more than 60 days. The dotted line starting at day 120 indicates the number and age of apparently healthy taxol treated polycystic mice that were sacrificed for histology studies. Pairs of mice were sacrificed at 120 days, 182 days and 210 days of age.
In order to determine whether taxol prevents cyst formation by inhibiting cell division, another drug known to have anti-mitotic activity, methotrexate, was tested for its ability to treat homozygous cpk mice. Six cpk mice were injected intraperitoneally with 15 μl of methotrexate solution (1.1 mg/ml in water) 10-12 days after birth and once every week thereafter. The methotrexate-injected mice survived until between 18 and 27 days after birth, with only one mouse living longer than 28 days. […] Therefore, the anti-mitotic activity of taxol cannot explain its ability to treat CPK mice having a polycystic-type kidney disease. Rather, the results from in vitro tests indicate that agents which interfere with the function of the cytoskeleton, or which inhibit the delivery of membrane proteins are useful in treating cystic diseases such as Polycystic Kidney Disease.
Eleven homozygous cpk mice, raised and identified as in Example 6 were treated with 15 μl of 10 mg/ml taxol in DMSO through intraperitoneal injection beginning 11-14 days after birth. Following the first treatment, the mice were administered with the same treatment once every week thereafter. As controls, 6 cpk mice were treated with 15 μl intraperitoneal injections of DMSO beginning 10-12 days after birth and then once every week thereafter.

Murine CPK Cells = test: In vitro cyst formation and cyst size in suspension culture of murine CPK cells; assay type: cell-based, mouse
Experimental: At 10, 21 and 28 days after birth, mice having congenital polycystic kidney disease (CPK) and their phenotypically normal littermates were sacrificed by cervical dislocation. Kidneys were harvested aseptically and washed with DMEM/F12 (Sigma Chemical Co., St. Louis, Mo.) in a 1:1 mix. Each decapsulated kidney was chopped into cubes (1 mm) and incubated in 5 ml of collagenase solution composed of 1 mg/ml collagenase type IV (Worthington Biochemical Corporation, Freehold, N.J.), 1 mg/ml egg white trypsin inhibitor (Worthington) in 1:1 DMEM/F12.
The top 12 mls, which contained both single cells and aggregates of up to 10 cells, as assessed by inverted phase-ontrast microscopy, were placed in 2 ml aliquots in the wells of plastic culture plates (Corning, N.Y.) precoated with 1% agarose in DMEM:F12 (2 ml in each well of a 6-well plate; 1 ml in each well of a 24-well plate). Cell samples were digested with further incubation for 10 minutes in 0.05% trypsin and 0.53 mM EDTA (Gibco, BRL Gaithesburg, Md.) at 37° C. All cultures were plated at a final density of 1-3×10^4 cell, per well. For growth studies of monolayer cells, identical preparations were grown on the plastic surface of the culture plates. Both the monolayers and the cell suspensions were incubated at 37° C. in a moisture saturated incubator in 5% CO2 and air.
I used the in vitro cyst formation system of the present invention to analyze compounds that affect the process of cyst formation. To determine the therapeutic effectiveness of an agent, cyst-forming cells are suspended in a medium to which the agent has been added. These cells are then cultured on a solid phase without formation of a layer of cells on the surface, such as in the assay system described in Example 1. The extent to which the cells actually form cysts can be detected and compared to the extent of cyst formation expected if no agent were added. If the amount of cyst formation is lower than expected, then the agent is a good candidate for therapeutic intervention of cystic diseases.
The effects of various metabolic inhibitors on cyst formation were studied in cultures derived from day 21 postnatal CPK mice. […] Taxol (25 μM), a microtubule specific inhibitor, was from Calbiochem (La Jolla, Calif.). All other chemicals were obtained from Sigma Chemical Co. Cytosine arabinoside was added at the final concentration of 20 μg/ml to inhibit DNA synthesis; α-amanitin at 100 ng/ml to inhibit RNA synthesis; cycloheximide at 40 μg/ml to inhibit protein synthesis; amiloride at 1 mM to inhibit the renal epithelial Na^+ -H^+ exchange; ouabain at 0.5 mM to inhibit Na^+ -K^+ -ATPase; brefeldin-A at 10 μg/ml to inhibit transport of surface proteins; griseofulvin at 350 μM to inhibit microtubule function; colchicine at 10 μM to inhibit microtubule polymerization; and cytochalasin-B and cytochalasin-D at 10 μM to depolymerize actin filaments.
In the presence of these metabolic inhibitors in vitro, cyst formation was noted to be either present or absent; if present, the diameters of 20 cysts from a 0.2 ml aliquot were measured. In the same samples, ^3 H-dThd incorporation was also measured as described above. […] After each wash, cell clusters were collected by centrifuging at 200×g for 1 minute and the supernatant discarded. Washed cell clusters were resuspended in the original volume of growth medium without inhibitors, placed in agarose coated wells and incubated at 37° C. in a moisture saturated incubator in 5% CO2 and air.
In this table, the mean cyst size is reported as ±SD with a measurement of twenty cysts. The ^3 H-dThd incorporation is reported as ±SD using measurements of three wells. The * indicates […] versus control. […] The entries listed as "NA" in the table indicate data that is not available.

CC(=O)O[C@H]1C(=O)[C@@]2(C)[C@H]([C@H](OC(=O)c3ccccc3)[C@]3(O)C[C@H](OC(=O)[C@H](O)[C@@H](NC(=O)c4ccccc4)c4ccccc4)C(C)=C1C3(C)C)[C@]1(OC(C)=O)CO[C@@H]1C[C@@H]2O [Taxol]
survival (in words) (homozygous cpk mice; weekly i.p., versus untreated or DMSO): generally experienced substantially longer life spans | condition of treated polycystic mice (in words) (homozygous cpk mice; weekly taxol, pairs sacrificed at 120, 182 and 210 days of age): remained active until sacrifice and attained adult size and weight, despite having palpably enlarged kidneys | Cyst Size (Murine CPK Cells; mean ± SD of twenty cysts, concentrations as in Table II, control 71 ± 22): 0 μm | cyst formation (in words) (Murine CPK Cells; murine CPK cells, 24 h suspension culture, ouabain 0.5 mM, also 1 mM, b155 taxol 25 μM, colchicine 10 μM, vinblastine 1 μM, cytochalasins 10 μM, model species not given): reversibly inhibited in vitro cyst formation in both models
